The record followed here is ChEMBL document CHEMBL5233278, “Recent Advances in the Medicinal Chemistry of Farnesoid X Receptor” (J Med Chem, 2021).

Series [1] addresses T1, Bile acid receptor (Homo sapiens, UniProt Q96RI1).
T1 sequence (Q96RI1 whole entry): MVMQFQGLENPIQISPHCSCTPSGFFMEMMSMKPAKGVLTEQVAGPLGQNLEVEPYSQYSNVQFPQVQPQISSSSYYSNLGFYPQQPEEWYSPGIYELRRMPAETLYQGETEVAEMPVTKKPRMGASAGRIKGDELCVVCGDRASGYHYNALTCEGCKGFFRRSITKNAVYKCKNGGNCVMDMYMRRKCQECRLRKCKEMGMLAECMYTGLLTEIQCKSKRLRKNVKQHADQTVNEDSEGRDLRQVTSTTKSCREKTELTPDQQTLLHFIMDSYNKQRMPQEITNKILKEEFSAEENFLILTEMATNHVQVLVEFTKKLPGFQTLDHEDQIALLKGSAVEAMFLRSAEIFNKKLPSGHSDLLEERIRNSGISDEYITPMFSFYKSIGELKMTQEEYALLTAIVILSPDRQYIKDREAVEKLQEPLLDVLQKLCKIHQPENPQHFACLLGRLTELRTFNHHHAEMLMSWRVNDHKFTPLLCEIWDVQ
Kind of series: Agonist activity at FXR (unknown origin).

Series [2] deals with Bile acid receptor (Homo sapiens) (UniProt Q96RI1). Description: Agonist activity at FXR in human HepG2 cells at 3 uM relative to control. Particulars: filed as agonist.
Series [3] shares this target. Description: Agonist activity at FXR in human HepG2 cells coexpressing BSEP at 0.3 uM relative to control. Particulars: filed as agonist.
Series [4] addresses Voltage-gated inwardly rectifying potassium channel KCNH2 (Homo sapiens, UniProt Q12809). Kind of series: Inhibition of hERG. The class given is toxicity. Background: Block of hERG is tested as a sign of cardiac risk.
For series [5], the target named is T1, Bile acid receptor. Description: Agonist activity at FXR in HEK293T cells by steady-glo luciferase assay. The class given is cell-based.
Series [6] deals with T1, Bile acid receptor. Kind of series: Agonist activity at human GST-tagged FXR incubated for 1 hrs by alphascreen assay. Background: Alpha assays give light when donor and acceptor beads are brought close together.
Series [7] has as its target T2, Bile acid receptor (Homo sapiens) (UniProt Q96RI1).
T2 sequence (whole entry): T1 sequence (Q96RI1 whole entry)
Description: Agonist activity at FXR in HEK293 cells assessed as maximum efficacy relative to control. The class given is cell-based. Particulars: filed as agonist.

The nature of series [8]: Cmax in Sprague-Dawley rat serum at 5 mg/kg, po measured up to 24 hrs by LC-MS-MS analysis. The class given is ADME, organism-based. Set-up: dose 5 mg/kg, time < 24 hrs, route po.
Series [9] can be described thus: AUC(0 to 24 hrs) in Sprague-Dawley rat liver at 5 mg/kg, po measured up to 24 hrs by LC-MS-MS analysis. The class given is ADME, organism-based. Set-up: dose 5 mg/kg, time < 24 hrs, route po. Particulars: in vivo.
Series [10] is described as follows: Cmax in Sprague-Dawley rat liver at 5 mg/kg, po measured up to 24 hrs by LC-MS-MS analysis. The class given is ADME, organism-based. Set-up: time < 24 hrs, dose 5 mg/kg, route po.
Series [11] is described as follows: Cmax in Sprague-Dawley rat serum at 1 mg/kg, iv measured up to 24 hrs by LC-MS-MS analysis. Set-up: time < 24 hrs, dose 1 mg/kg, route iv. The class given is ADME, organism-based.
Series [12] is described as follows: AUC(0 to 24 hrs) in Sprague-Dawley rat serum at 5 mg/kg, po measured up to 24 hrs by LC-MS-MS analysis. The class given is ADME, organism-based. Set-up: dose 5 mg/kg, time < 24 hrs, route po.
Series [13] in a line: AUC(0 to 24 hrs) in Sprague-Dawley rat serum at 1 mg/kg, iv measured up to 24 hrs by LC-MS-MS analysis. The class given is ADME, organism-based. Set-up: dose 1 mg/kg, time < 24 hrs, route iv.
For series [14], the target named is T1, Bile acid receptor. Kind of series: Agonist activity at FXR in human HeLa cells incubated for 24 hrs by Dual-Glo luciferase assay. The class given is cell-based. To be noted: hela.
Series [15] deals with T3, Bifunctional epoxide hydrolase 2 (Homo sapiens, UniProt P34913).
T3 sequence (P34913 whole entry): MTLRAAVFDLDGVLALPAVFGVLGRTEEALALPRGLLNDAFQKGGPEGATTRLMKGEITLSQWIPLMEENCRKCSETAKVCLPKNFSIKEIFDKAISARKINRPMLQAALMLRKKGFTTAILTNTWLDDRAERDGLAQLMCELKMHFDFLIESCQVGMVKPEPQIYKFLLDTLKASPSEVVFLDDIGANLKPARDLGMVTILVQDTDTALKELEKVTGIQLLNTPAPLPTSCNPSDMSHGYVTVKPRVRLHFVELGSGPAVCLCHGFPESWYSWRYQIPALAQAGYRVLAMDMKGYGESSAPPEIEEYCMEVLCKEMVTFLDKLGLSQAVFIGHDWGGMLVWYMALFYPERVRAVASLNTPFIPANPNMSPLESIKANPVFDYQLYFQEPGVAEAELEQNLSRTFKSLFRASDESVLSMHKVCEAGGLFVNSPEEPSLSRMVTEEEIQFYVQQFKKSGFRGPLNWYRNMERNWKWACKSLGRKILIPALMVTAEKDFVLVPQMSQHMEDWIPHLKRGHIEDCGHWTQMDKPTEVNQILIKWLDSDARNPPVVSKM
Description: Inhibition of sEH (unknown origin).

Series [16] addresses T1, Bile acid receptor. Description: Agonist activity at FXR in human HeLa cells by Dual-Glo luciferase assay. The class given is cell-based.
In series [17] the target is T2, Bile acid receptor (Homo sapiens). Kind of series: Agonist activity at human FXR expressed in CHO cells assessed as maximum efficacy incubated for 22 hrs by luciferase reporter assay relative to control. The class given is cell-based. On the technique in general: In a reporter assay the amount or activity of a reporter protein is the signal.
For series [18], the target named is T1, Bile acid receptor. Kind of series: Agonist activity at FXR (unknown origin) incubated for 180 mins by TR-FRET assay.

Each structure is given as a SMILES string.

Voltage-gated inwardly rectifying potassium channel KCNH2, sequence (Q12809 whole entry): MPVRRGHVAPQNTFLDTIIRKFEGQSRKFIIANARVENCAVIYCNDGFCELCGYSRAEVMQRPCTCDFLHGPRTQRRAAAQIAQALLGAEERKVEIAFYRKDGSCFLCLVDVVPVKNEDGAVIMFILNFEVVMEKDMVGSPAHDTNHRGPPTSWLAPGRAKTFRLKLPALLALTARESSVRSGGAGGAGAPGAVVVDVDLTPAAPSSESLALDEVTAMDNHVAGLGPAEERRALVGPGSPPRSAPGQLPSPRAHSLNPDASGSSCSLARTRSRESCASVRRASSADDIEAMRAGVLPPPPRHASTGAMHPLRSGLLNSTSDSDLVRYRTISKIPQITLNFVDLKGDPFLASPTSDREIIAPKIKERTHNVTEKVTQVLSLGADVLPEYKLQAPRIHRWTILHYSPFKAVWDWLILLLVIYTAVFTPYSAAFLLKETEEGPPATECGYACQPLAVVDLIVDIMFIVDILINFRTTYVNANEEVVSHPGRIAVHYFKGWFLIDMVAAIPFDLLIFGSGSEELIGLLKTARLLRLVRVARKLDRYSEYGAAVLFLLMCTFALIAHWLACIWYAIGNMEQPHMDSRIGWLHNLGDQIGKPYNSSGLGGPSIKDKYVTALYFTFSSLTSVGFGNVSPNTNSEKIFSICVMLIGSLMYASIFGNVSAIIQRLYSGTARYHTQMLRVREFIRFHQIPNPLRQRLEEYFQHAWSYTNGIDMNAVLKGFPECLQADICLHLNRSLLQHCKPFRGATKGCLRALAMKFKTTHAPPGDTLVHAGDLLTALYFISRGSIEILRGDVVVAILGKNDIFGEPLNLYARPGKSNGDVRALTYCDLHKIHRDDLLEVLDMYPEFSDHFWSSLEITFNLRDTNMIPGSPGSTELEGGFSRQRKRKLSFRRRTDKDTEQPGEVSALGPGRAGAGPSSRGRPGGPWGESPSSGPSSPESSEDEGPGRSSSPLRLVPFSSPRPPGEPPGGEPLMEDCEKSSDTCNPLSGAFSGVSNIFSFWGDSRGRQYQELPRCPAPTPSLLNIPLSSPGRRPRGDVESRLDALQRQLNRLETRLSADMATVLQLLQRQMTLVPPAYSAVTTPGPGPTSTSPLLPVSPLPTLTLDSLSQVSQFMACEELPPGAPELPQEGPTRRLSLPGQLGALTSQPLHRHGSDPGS

Regarding `O=C(O)c1cc(F)c2nc(N3[C@@H]4CC[C@H]3C[C@@H](OCc3c(-c5c(Cl)cccc5Cl)noc3C3CC3)C4)sc2c1`, the EC50 at Bile acid receptor [1] turned out to be 7.7 nM.

As to `C[C@H]1CC(OCc2c(-c3c(Cl)cccc3Cl)noc2C2CC2)C[C@H](C)N1c1nc2ccc(C(=O)O)cc2s1` (some centres not stated), the Activity in series [2] came to 88%; in [3], 100%.

In the case of `Cc1cc(OCc2c(-c3c(Cl)cccc3Cl)noc2C2CC2)ccc1C1=NOC(c2cc(C(=O)O)nn2C)C1` (configuration not stated), the IC50 in series [4] is more than 30 µM. On Bile acid receptor [5], this compound yielded an EC50 of 10 nM.

In series [4], `CCn1nc(C(=O)O)cc1C1CC(c2ccc(OCc3c(-c4c(Cl)cccc4Cl)noc3C3CC3)cc2C)=NO1` (configuration not stated) showed an IC50 of more than 30 µM. Moreover, the EC50 on Bile acid receptor [5] amounted to 23 nM.

Regarding `O=C(O)c1ccc(-c2nc(N3[C@@H]4CC[C@H]3C[C@@H](OCc3c(-c5c(Cl)cccc5Cl)noc3C3CC3)C4)no2)cc1F`, the EC50 at Bile acid receptor [1] was less than 50 nM.

With `Cc1cc(OCc2c(-c3c(Cl)cccc3Cl)noc2C2CC2)ccc1C1=NOC(c2ccc(C(=O)O)nc2)C1` (configuration not stated), in [4], the IC50 is more than 30 µM. Also, the EC50 on Bile acid receptor [5] was determined as 5 nM.

The compound `O=C(O)c1ccc(N2C(=O)CCc3cc(OCc4c(-c5c(Cl)cccc5Cl)noc4C4CC4)ccc32)nc1` yielded an EC50 on Bile acid receptor [6] of 20 nM.

Take `Cc1cc(OCc2c(-c3c(Cl)cccc3Cl)noc2C2CC2)ccc1C1=NOC(c2cccc(C(=O)O)c2)C1` (configuration not stated): the IC50 in [4] was more than 30 µM.

In the case of `O=C(O)c1ccc(-c2csc(N3CCC(OCc4c(-c5c(Cl)cccc5Cl)noc4C4CC4)CC3)n2)cc1`, in [7], the Emax came out at 101%. The values for the Cmax in series [8], in series [10] and in series [11] were 252 ng/mL, 3370 ng/g and 4340 ng/mL, respectively. The compound also registered an AUC in [9] of 14971 ng·h/g. In addition, the 50% effective concentration (EC50) at Bile acid receptor [5] was determined as 12 nM. For the same compound, the AUC(0-t) at 24 h was 1180 ng·h/mL in [12] and 2410 ng·h/mL in series [13].

Consider `COc1cc(C(=O)O)ccc1Cn1ccc2ccc(NC(=O)c3ccc(C(C)(C)C)cc3)cc21`, for which, on Bile acid receptor [14], a half-maximal response (EC50) required 260 nM. Moreover, the IC50 in series [15] amounted to 1700 nM.

On Bile acid receptor [16], `O=C(O)c1cccc(NC(=O)c2ccc(OCc3ccccc3)cc2)c1` yielded an EC50 of 9.1 nM.

Regarding `O=C(O)c1ccc(-c2nc(N3[C@@H]4CC[C@H]3C[C@@H](OCc3c(-c5c(Cl)cccc5Cl)noc3C3CC3)C4)no2)cc1`, the EC50 on Bile acid receptor [1] is less than 50 nM.

Turning to `O=C(O)c1cccc(NC(=O)c2ccc(OCCCCc3ccccc3)cc2)c1`, on Bile acid receptor [16], the midpoint of the response, the EC50, lay at 26 nM.

In the case of `O=C(O)c1ccc2nc(N3C[C@@H]4C[C@H]3C[C@H]4OCc3c(-c4c(Cl)cccc4Cl)noc3C3CC3)sc2c1`, the values for the Activity in [2] and in series [3] were 185% and 166%, respectively.

Regarding `COc1cc(Cl)cc(N(CC23CCC(c4ccc(OC)c(C#N)c4)(CC2)CC3)C(=O)c2ccncc2C)c1`, the Emax in [17] was determined as 28%.

Turning to `O=C1CCc2cc(OCc3c(-c4c(Cl)cccc4Cl)noc3C3CC3)ccc2N1c1ncc(O)cc1F`, a half-maximal effect on Bile acid receptor [6] (EC50) was put at 9 nM.

Regarding `CS(=O)(=O)NC(=O)c1ccc(N2CCC3(CC2)CC(OCc2c(-c4ccccc4OC(F)(F)F)noc2C2CC2)CO3)nc1` (configuration not stated), the EC50 on Bile acid receptor [18] was 26.9 nM.

Regarding `COc1cccc(-c2ccc(NC(=O)C3=C(C(=O)O)CCC3)c(F)c2)c1` [VIDOFLUDIMUS], it took 450 nM to reach a half-maximal effect at Bile acid receptor [1] (EC50).

In turn, `Cc1cc(OCc2c(-c3c(Cl)cccc3Cl)noc2C2CC2)ccc1C1=NOC(c2cc(C(=O)O)nn2C(C)C)C1` (configuration not stated) gave an IC50 in series [4] of more than 30 µM.

One may read the EC50 as the concentration giving half of the maximal effect. A high value points to lower potency in that assay. By IC50 is commonly meant the concentration needed to halve the response being measured. The term Emax denotes the maximal effect, on the per cent scale that the assay sets. What is called Cmax is the maximum level reached in the sampled fluid or tissue. The AUC(0-t) is exposure summed from dosing to a finite time, without extrapolation to infinity. Low readings indicate less exposure, high ones more exposure.
